The values that follow come from patent US5726302A, “Water soluble adenosine kinase inhibitors” (Gensia Inc., priority 1995, dated 1998).

Data set [1] has as its target adenosine kinase. Particulars: read-out: Ki, inhibition of adenosine kinase; cited from earlier work.
Data set [2] has as its system rat cardiomyocytes. As to conditions: inhibition of adenosine deaminase alone; cited from earlier work.
Data set [3] has as its system isolated guinea pig hearts. Particulars: in the absence of ADA inhibition; cited from earlier work.
In data set [4] the test system is isolated rat hearts. Particulars: alone, cited from earlier work.
The test system of data set [5] is ischemic cerebral injury. Particulars: Phillis et al.; cited from earlier work.
Data set [6] concerns mice. As to conditions: cited from earlier work.
The subject of data set [7] is dog hearts. Particulars: in vivo; cited from earlier work.
The subject of data set [8] is anesthetized rats. As to conditions: cited from earlier work.
For data set [9], the system named is male SA rats. Description: Analgesic activity, tail flick. As to conditions: Rattus norvegicus, ip. Type of data set: in vivo.
Data set [10] has as its system Rats. Description: Anti-inflammatory activity, carrageenan paw. As to conditions: 10 mg/kg, swelling after 3 hours. Type of data set: in vivo, rat. As to the method:
Carrageenan (Type λ) was suspended in sterile PBS at 1% (w/v), autoclaved for 30 minutes, and stored at room temperature. Rats were pretreated with vehicle or AK inhibitor (10 mg/kg) by oral gavage or i.p. administration and the volume of the left hind paw was measured using a water displacement plethysmometer (Stoelting Co., Wood Dale, Ill.). One hour after oral treatment or 30 minutes after i.p. treatment, the rats were briefly anesthetized, and 0.1 ml of the carrageenan solution was injected subcutaneously into the planar surface of the left hind paw. The ensuing paw swelling was measured by plethysmometry after 3 hours. The paw volume in millileters was subtracted from the pre-injection paw volume. Data are presented as the percent inhibition of paw swelling in AK inhibitor treated animals, compared to vehicle treated control animals.

Data set [11] in a line: Water solubility. It counts as physicochemical. Particulars: deionized water (DI). The protocol: The sample was sonicated for a period of up to 20 minutes. If a solution was not obtained, further solvent was added and the process was repeated until a clear solution was obtained, and the results were recorded. Solutions used were 50 mM potassium biphthalate (pH 4); 100 mM glycine (pH 9); 25 mM sodium carbonate and 25 mM sodium bicarbonate (pH 10); or deionized water (DI).

The subject of data set [12] is male SA rats. The experiment in a line: Anticonvulsant activity, maximal electroshock (MES) model. Particulars: Rattus norvegicus, 1 h; po; one hour after dosing, fasted. Type of data set: in vivo. The protocol: The anticonvulsant activity of the tested compounds was evaluated in male SA rats (100-150 g, Simonsen) using the maximal electroshock (MES) model described in Swinyard et al., Antiepileptic Drugs, 3d Ed. at 85-102 (Levy, et al., eds.), N.Y.: Raven Press (1989). The rats were maintained on a 12/12 light/dark cycle in temperature controlled facilities with free access to food and water. For p.o. administration, the animals are fasted overnight, prior to the experiment. One hour prior to seizure testing, the animals were injected interperitoneally (ip) or orally (per os, […]) with one of various doses of test compound dissolved in DMSO or PEG 400.
This endpoint was expressed as the percentage of animals in which the response was inhibited.

Data set [13] has as its system male SA rats. Description: Analgesic activity, hot plate. It counts as in vivo. As to conditions: Rattus norvegicus, ip.
For data set [14], the target named is partially purified pig heart adenosine kinase (Sus scrofa, UniProt A0A5G2R0F5). The experiment in a line: biochemical. Particulars: for IC50: pig heart adenosine kinase, 0.5 μM adenosine, pH 7.0, 20 minutes at 37° C, read-out: AK Inhibition (IC50). The protocol:
Adenosine kinase activity was measured essentially as described by Yamada et al Biochim. Biophys. Acta 660, 36-43 (1988) with a few minor modifications. Assay mixtures contained 50 mM TRIS-maleate buffer, pH 7.0, 0.1% BSA, 1 mM ATP 1 mM MgCl2, 0.5 μM [U-^14 C] adenosine (400-600 mCi/mmol) and varying duplicate concentrations of inhibitor. The reactions were initiated by addition of approximately 0.1 μU partially purified pig heart adenosine kinase, where one unit is defined as that amount of enzyme required to phosphorylate 1 μmol adenosine per minute. The reactions were incubated for 20 minutes at 37° C. The assay was quenched upon spotting 30 μL aliquots onto 2 cm^2 pieces of Whatman DE81 anion exchange paper. The paper squares were washed for 3 minutes in 6 L distilled/deionized water to remove the unreacted adenosine. […] The amount of ^14 C-AMP was quantified by scintillation counting.

In data set [15] the test system is mice. Description: HPLC analysis of plasma for metabolism in mice after oral administration. Type of data set: in vivo. As to conditions: 10 mg/kg.
[16] abbreviates: ip, 30 minutes before carrageenan.
Setting [17] is: po, one hour before carrageenan.

SMILES strings stand for the structures. Read-outs that look alike come from different tables or passages of the source.

Chain of partially purified pig heart adenosine kinase (A0A5G2R0F5 1-362): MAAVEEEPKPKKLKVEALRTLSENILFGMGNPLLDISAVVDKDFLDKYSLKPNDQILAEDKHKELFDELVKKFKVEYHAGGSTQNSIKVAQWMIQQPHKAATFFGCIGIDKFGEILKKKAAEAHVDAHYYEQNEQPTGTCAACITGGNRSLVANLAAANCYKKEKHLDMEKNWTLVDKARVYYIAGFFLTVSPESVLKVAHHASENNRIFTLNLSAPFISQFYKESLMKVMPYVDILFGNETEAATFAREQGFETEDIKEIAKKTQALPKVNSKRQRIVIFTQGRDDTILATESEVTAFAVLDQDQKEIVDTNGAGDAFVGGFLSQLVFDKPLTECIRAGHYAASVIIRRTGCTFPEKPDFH

As for `OC[C@H]1O[C@@H](n2cnc3c(NCCCCCCCCCCCCNc4ncnc5c4ncn5[C@@H]4O[C@H](CO)[C@@H](O)[C@H]4O)ncnc32)[C@H](O)[C@@H]1O` [1,12-bis(adenosin-N^6-yl)dodecane], the Ki in data set [1] is less than 100 nM.
In the case of `OC[C@H]1O[C@@H](n2cnc3c2N=CNC[C@H]3O)C[C@@H]1O` [2'-deoxycoformycin], the “effect on adenosine release from the cells” value in [2] is “no effect on adenosine release”.
Take `NC[C@H]1O[C@@H](n2cnc3c(N)ncnc32)[C@H](O)[C@@H]1O` [5'-amino-5'-deoxyadenosine]: the Ki in data set [1] is less than 100 nM. In data set [3], the “increase of adenosine release” value is reported as “not apparent in the absence of ADA inhibition”.
`Nc1ncnc2c1c(I)cn2[C@@H]1O[C@H](CO)[C@@H](O)[C@H]1O` [5-iodotubercidin]: the “increase in perfusate adenosine concentration” value in data set [4] (hypoxic, anoxic or ischemic conditions) is “no increase in perfusate adenosine concentration”. The “increase in perfusate adenosine concentration” value in data set [4] (normoxic conditions) is “no increase in perfusate adenosine concentration”. In addition, in [5], the “protection against ischemic cerebral injury” value was “apparently does not protect against ischemic cerebral injury”. In data set [6], the “general flaccidity (skeletal muscle relaxation)” value is reported as “pronounced general flaccidity”, the hypothermia entry is “hypothermia” and the spontaneous locomotor activity entry is recorded as “much-reduced spontaneous locomotor activity”. Moreover, the “effects in dog hearts subjected to ischemia and reperfusion” value in data set [7] is “inconsistent effects”. Besides, in data set [8], the blood pressure entry is recorded as “decrease blood pressure”; the heart rate entry was “decrease blood pressure and heart rate”.
Take `C[C@H]1O[C@@H](n2cc(-c3ccccc3)c3c(Nc4ccc(CN(C)C)cc4)ncnc32)[C@H](O)[C@@H]1O` [Compound 1, 4-N(N,N-Dimethylaminomethylphenyl)amino-5-phenyl-7-(5-deoxy-β-D-ribofuranosyl)pyrrolo[2,,3-d]pyrimidine]: the ED50 in [9] was 15 mg/kg; in [12] it was more than 20 mg/kg; in [13], 15.2 mg/kg. Further, the “Carrageenan Paw (% inhibition) of paw swelling” value (“Carrageenan Paw (% inhibition)” for short) in [10] (setting [16]) stood at 26.0%; in data set [10] (setting [17]), 19.2%. In data set [11], this molecule came in with a solubility of more than 5000 µg/mL.
In the case of `C[C@H]1O[C@@H](n2cc(I)c3c(NCc4ccccn4)ncnc32)[C@H](O)[C@@H]1O` [Compound 41, 4-N-(2-Pyridylmethylamino)-5-iodo-7-(5-deoxy-1 -β-D-ribofuranosyl)pyrrolo[2,3-d]pyrimidine], the values for the ED50 in data set [9] and in data set [13] were less than 1 mg/kg and 1.2 mg/kg, respectively. For the same molecule, the IC50 in data set [14] was determined as 70 nM. Further, the “Carrageenan Paw (% inhibition)” value in data set [10] (setting [16]) came to 84.8%; in data set [10] (setting [17]), 90.6%.
Consider `C[C@H]1O[C@@H](n2cc(I)c3c(NCCc4ccccn4)ncnc32)[C@H](O)[C@@H]1O` [Compound 43, 4-N-(2-(2-pyridylethyl)amino)-5-iodo-7-(5-deoxy-1-β-D-ribofuranosyl)pyrrolo[2,3-d]pyrimidine], for which the “AK inhibition in vitro” value in data set [14] (in vitro) was “weak AK inhibitor in vitro”. Besides, the IC50 in data set [14] worked out at 10000 nM. Besides, the “Carrageenan Paw (% inhibition)” value was determined as 58.6% in data set [10] (setting [16]) and 69.7% in [10] (setting [17]). For the same molecule, the “metabolism in mice shown by HPLC analysis of plasma” value in data set [15] is “generate a potent AK inhibitor”.
